This note sets out measurements from patent US20030203000A1, “Modulation of therapeutic agent release from a polymeric carrier using solvent-based techniques” (priority 2002, published 2003).

The nature of the data set: paclitaxel release profile from block-copolymer-coated stents in PBS with 0.5% Tween 20. It is filed as physicochemical. Particulars: release in PBS with 0.5% Tween 20, FIG. 1. The source says:
A solution is provided that contains the following: 99 wt % solvent system, 0.25 wt % paclitaxel and 0.75 wt % block copolymer. The copolymer is synthesized using known techniques such as those described in U.S. Pat. No. 5,741,331, U.S. Pat. No. 4,946,899 and U.S. Ser. No. 09/734,639. The solvent system consists of tetrahydrofuran (THF) and toluene, which are provided in varying ratios in this example. The solution is provided by (1) mixing the paclitaxel and tetrahydrofuran, (2) adding the copolymer, (3) adding the toluene, (4) thoroughly mixing (e.g., overnight), and (5) filtering.
The solution is then placed in a syringe pump and fed to a spray nozzle. A stent is mounted onto a holding device parallel to the nozzle and, if desired, rotated to ensure uniform coverage. Depending on the spray equipment used, either the component or spray nozzle can be moved while spraying such that the nozzle moves along the component while spraying for one or more passes.
After a coating is formed in this fashion, it is dried, for example, by placing it in a preheated oven for 30 minutes at 65° C., followed by 3 hours at 70° C.
Three coated stents are formed in this manner using (in addition to 0.25 wt % paclitaxel and 0.75 wt % block copolymer) the following solvent species in the following relative amounts: (T) 99 wt % THF, (2) 75 wt % THF, 24 wt % toluene, (3) 50 wt % THF, 49 wt % toluene, (4) 25 wt % THF, 74 wt % toluene, (5) 5 wt % THF, 94 wt % toluene. Release rate as a function of time and cumulative release as a function of time (referred to herein as the “release profile”) were then measured in PBS with 0.5% Tweeng 20 (polyoxyethylene(20) sorbitan monolaurate) available from Sigma-Aldrich. The results are graphically illustrated in FIG. 1.

Regarding `CC(=O)O[C@H]1C(=O)[C@@]2(C)[C@H]([C@H](OC(=O)c3ccccc3)[C@]3(O)C[C@H](OC(=O)[C@H](O)[C@@H](NC(=O)c4ccccc4)c4ccccc4)C(C)=C1C3(C)C)[C@]1(OC(C)=O)CO[C@@H]1C[C@@H]2O` [paclitaxel], the “paclitaxel release (release profile)” value by setting is: (coating formed from higher THF-to-toluene ratios in the solvent system) “more accelerated paclitaxel release”; (coating formed from lower THF-to-toluene ratios in the solvent system) “more extended paclitaxel release”. The “paclitaxel release (release rate and cumulative release as a function of time)” value (stent coating of 0.25 wt % paclitaxel and 0.75 wt % block copolymer, THF solvent system with toluene added) is reported as “reduced by the addition of toluene”.
